Measurements as given in US9499495B2, “Quinazolines and azaquinazolines as dual inhibitors of RAS/RAF/MEK/ERK and PI3K/AKT/PTEN/mTOR pathways” (Asana Biosciences, LLC, priority 2013, dated 2016).

What was measured:
PI3Kα = target: T1, PI3Kα (Homo sapiens, UniProt P42336); assay: PI3 Kinase alpha TR-FRET assay; assay type: biochemical
T1 construct: made in house; host or cells: SF9 cells
Procedure: Compound inhibition for PI3Kα was determined in a homogeneous TR-FRET assay using a PI3Kα assay kit (Millipore, US, Catalog #33-016). The PI3 kinase catalyzes phosphorylation of […] (PIP2) to phosphatidylinositol 3,4,5-trisphosphate (PIP3) in the presence of ATP and Mg^2+. The PIP3 product is detected by displacement of biotin-PIP3 from an energy transfer complex consisting of Europium labeled anti-GST monoclonal antibody, a GST-tagged pleckstrin homology (PH) domain, biotinylated PIP3 and Streptavidin-Allophycocyanin (APC). Excitation of Europium in the complex results in an energy transfer to the APC and a fluorescence emission at 665 nm.
Compounds tested were dissolved in DMSO and directly distributed into 384-well plates at a volume of 0.5 μL. P110/P85a/PIP2 mixture (14.5 μL) was added to compound wells and incubated for 30 min at rt […]. P110/P85a was expressed in SF9 cells and purified in-house. 5 ng P110/P85a was used in the assay. The kinase reaction was started by the addition of ATP. The assay concentrations of both PIP2 and ATP were 40 μM. The reaction mixture was incubated for 30 min and was terminated by the addition of stop mix and detection mix. Fluorescence was measured at 615 and 665 nm upon excitation at 340 nm in a Victor V5 fluorometer (Perkin Elmer, US). The fluorescence emission ratio at 665 to 615 nm, proportional to the kinase activity, was plotted against the compound concentration to generate dose-response curves and IC50 values were determined.

pERK in A375 cells = assay: In Cell Western (ICW) assay, pERK in A375 cells; assay type: cell-based; conditions: Homo sapiens, A-375, 3 h treatment
In short: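 After a 3 h compound treatment at 37 °C, fixed RKO or A375 cells were probed for phospho-ERK1/2 (T202/Y204), phospho-S6RP or phospho-AKT T308 and detected with a Eu-tagged anti-rabbit antibody (ex 340/em 615 nm), with Hoechst signal as the cell-number correction. Inhibition was referenced to DMSO, and IC50 values came from sigmoidal dose-response curves.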

B-RAFV600E = target: T2, B-RAFV600E (Homo sapiens, UniProt P15056, V600E); assay: B-RAFV600E radiometric assay; assay type: biochemical; conditions: read-out: Kinase assay B-Raf
T2 construct: purchased Millipore, USA 14-557
T2 sequence (P15056 416-766 V600E limits assumed): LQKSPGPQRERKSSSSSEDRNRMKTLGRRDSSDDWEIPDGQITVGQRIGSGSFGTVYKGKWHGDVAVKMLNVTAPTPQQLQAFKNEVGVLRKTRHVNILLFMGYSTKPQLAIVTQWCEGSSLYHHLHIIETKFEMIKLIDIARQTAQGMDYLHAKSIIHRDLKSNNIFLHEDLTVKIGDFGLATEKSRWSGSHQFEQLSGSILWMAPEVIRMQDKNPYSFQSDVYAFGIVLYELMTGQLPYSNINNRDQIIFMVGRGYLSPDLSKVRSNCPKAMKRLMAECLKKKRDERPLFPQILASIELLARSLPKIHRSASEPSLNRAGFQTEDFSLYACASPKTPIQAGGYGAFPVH
In short: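 B-RAFV600E was preincubated 45 min at rt with compound in 1% DMSO. MEK-K97M (0.5 μg), 5 μM final cold ATP and [γ-32P]ATP were then added for 2 h at rt. Phosphorylated MEK was captured on P81 paper and scintillation-counted; IC50 came from a sigmoidal dose-response fit.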

mTOR kinase = target: T3, mTOR kinase (Homo sapiens, UniProt P42345); assay: mTOR kinase TR-FRET assay; assay type: biochemical
T3 construct: purchased Millipore, US
T3 sequence (P42345 1362-2549 limits assumed): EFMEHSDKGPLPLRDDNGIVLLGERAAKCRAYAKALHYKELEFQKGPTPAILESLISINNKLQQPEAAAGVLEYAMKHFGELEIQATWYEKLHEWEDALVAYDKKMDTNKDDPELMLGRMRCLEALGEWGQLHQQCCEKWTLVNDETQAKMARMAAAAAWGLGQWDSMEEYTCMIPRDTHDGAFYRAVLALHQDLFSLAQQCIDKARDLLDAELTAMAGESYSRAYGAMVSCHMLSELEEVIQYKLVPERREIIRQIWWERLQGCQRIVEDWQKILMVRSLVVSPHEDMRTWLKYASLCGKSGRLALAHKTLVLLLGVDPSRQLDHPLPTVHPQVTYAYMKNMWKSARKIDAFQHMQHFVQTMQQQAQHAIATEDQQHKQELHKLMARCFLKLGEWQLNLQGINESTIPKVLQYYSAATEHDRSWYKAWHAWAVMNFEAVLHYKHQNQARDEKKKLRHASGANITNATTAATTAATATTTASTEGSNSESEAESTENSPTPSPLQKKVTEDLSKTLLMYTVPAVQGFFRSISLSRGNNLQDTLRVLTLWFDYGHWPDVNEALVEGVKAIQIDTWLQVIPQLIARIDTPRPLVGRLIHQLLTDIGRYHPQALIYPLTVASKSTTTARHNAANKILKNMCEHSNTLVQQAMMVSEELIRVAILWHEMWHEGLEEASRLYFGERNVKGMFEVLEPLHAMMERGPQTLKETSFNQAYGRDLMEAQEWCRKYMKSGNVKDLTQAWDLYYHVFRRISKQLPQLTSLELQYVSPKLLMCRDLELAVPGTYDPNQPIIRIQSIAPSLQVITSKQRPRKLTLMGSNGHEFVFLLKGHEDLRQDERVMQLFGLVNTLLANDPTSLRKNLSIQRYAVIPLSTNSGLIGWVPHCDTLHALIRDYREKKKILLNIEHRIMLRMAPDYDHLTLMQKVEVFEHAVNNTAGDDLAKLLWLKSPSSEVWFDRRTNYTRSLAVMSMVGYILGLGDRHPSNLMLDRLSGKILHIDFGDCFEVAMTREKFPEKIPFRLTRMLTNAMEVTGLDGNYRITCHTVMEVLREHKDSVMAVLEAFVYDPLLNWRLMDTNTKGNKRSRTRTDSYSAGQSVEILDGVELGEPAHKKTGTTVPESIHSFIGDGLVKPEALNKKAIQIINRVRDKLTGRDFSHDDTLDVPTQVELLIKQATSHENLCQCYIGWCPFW
In short: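 TR-FRET with ULight-p70 S6K (Thr 389) peptide (50 nM) and 20 μM ATP in 50 mM HEPES pH 7.5, 1 mM EGTA, 3 mM MnCl2; compound pre-incubated with enzyme before substrate addition, reaction at rt, EDTA-stopped. Eu anti-phospho antibody read 665/615 nm; IC50 from sigmoidal dose-response fit.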

A375 cells = assay: XTT assay for cell viability, A375 cells; assay type: cell-based; conditions: Homo sapiens, A-375, 72 h
Procedure: Cell lines (A375 ATCC No. CRL-1619, A2058 ATCC No. CRL-11147 and RKO ATCC No. CRL-2577, American Type Culture Collection (ATCC), Manassas Va.) once attaining ˜80% confluency were trypsinized, centrifuged and resuspended in fresh media. Cells (1000-2000/per well) were seeded in 96-well plate and incubated over-night at 37° C. in a 5% CO2 incubator. Compound dilutions were prepared in 100% DMSO followed by dilutions in the respective media. The cells were treated with NCEs for 72 h at 37° C. in 5% CO2 incubator. After 72 h, freshly prepared XTT (1 mg/ml)/PMS (25 μM) solution was added, incubated for 2 to 3 h at 37° C. and the absorbance was measured at 450 nm using an ELISA plate reader. Keeping DMSO control as 100%, the effect of the compound to inhibit the cell proliferation was calculated and the GI50 values were determined using sigmoidal dose response curve fit in GraphPad Prism® v5 software.

T1 sequence (P42336 whole entry, species assumed): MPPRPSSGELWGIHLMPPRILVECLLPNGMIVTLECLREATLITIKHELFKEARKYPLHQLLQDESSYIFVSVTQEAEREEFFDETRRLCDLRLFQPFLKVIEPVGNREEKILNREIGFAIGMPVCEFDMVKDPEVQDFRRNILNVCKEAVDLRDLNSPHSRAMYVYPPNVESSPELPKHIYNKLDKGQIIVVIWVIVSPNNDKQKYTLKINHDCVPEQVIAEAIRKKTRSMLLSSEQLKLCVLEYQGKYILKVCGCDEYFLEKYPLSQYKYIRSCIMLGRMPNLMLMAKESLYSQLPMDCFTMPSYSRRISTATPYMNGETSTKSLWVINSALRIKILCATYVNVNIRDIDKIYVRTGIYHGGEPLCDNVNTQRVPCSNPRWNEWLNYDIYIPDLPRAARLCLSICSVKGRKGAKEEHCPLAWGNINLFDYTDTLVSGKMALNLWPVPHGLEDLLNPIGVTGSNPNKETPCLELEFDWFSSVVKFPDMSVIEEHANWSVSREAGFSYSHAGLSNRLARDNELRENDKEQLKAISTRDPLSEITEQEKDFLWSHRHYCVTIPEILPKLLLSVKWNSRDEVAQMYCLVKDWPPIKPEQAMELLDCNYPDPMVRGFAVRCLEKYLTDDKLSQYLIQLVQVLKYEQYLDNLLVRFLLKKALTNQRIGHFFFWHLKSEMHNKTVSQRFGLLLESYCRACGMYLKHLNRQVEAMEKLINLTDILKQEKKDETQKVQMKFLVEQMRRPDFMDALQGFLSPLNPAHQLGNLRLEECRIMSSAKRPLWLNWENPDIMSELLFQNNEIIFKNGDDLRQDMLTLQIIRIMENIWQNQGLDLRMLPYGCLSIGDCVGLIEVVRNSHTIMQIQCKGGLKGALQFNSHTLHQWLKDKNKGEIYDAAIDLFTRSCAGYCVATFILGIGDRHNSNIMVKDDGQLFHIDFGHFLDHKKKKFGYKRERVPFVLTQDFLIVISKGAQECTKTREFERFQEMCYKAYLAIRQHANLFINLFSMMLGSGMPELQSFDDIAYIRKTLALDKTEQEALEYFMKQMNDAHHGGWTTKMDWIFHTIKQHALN
T1 sequence (P27986 whole entry partner, species assumed): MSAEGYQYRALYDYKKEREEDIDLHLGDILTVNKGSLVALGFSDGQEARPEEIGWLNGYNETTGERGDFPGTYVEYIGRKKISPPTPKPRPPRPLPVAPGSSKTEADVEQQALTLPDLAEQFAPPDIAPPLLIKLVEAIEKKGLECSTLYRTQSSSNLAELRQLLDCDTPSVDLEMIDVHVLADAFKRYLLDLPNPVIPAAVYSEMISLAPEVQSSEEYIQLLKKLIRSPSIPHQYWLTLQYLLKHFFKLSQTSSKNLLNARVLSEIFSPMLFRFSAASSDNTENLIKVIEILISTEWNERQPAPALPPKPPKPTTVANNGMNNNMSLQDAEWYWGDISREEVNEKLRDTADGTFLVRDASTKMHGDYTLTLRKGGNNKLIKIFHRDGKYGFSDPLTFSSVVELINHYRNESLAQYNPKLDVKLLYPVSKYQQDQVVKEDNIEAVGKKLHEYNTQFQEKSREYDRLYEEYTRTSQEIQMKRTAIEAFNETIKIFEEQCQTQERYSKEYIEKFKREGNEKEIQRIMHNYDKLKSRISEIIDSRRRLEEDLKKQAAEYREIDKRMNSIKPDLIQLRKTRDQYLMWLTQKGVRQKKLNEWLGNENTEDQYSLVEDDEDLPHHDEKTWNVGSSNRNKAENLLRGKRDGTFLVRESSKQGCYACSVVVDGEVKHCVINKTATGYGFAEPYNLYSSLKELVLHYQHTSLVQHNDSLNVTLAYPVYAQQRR

SMILES	IC50 (PI3Kα) [nM]	IC50 (pERK in A375 cells) [nM]	IC50 (B-RAFV600E) [nM]	IC50 (mTOR kinase) [nM]	IC50 (A375 cells) [nM]
CCCS(=O)(=O)Nc1cccc(-c2cc(OC)c3nc(-c4cnc(N)cc4C(F)(F)F)nc(N4CCOCC4)c3c2)c1F [Example 25, N-(3-(2-(6-amino-4-(trifluoromethyl)pyridin-3-yl)-8-methoxy-4-morpholinoquinazolin-6-yl)-2-fluorophenyl)propane-1-sulfonamide]	100 to 1000	100 to 1000	100 to 1000		
CCCS(=O)(=O)Nc1cccc(-c2cc(OC)c3nc(-c4cnc(N)c(Cl)c4)nc(N4CCOCC4)c3c2)c1F [Example 48, N-(3-(2-(6-amino-5-chloropyridin-3-yl)-8-methoxy-4-morpholinoquinazolin-6-yl)-2-fluorophenyl)propane-1-sulfonamide]	100 to 1000		1 to 100		
NCCOc1cc(-c2cccc(NS(=O)(=O)CCCF)c2F)cc2c(N3CCOCC3)nc(-c3ccc(N)nc3)nc12 [Example 56, N-(3-(8-(2-aminoethoxy)-2-(6-aminopyridtn-3-yl)-4-morpholinoquinazolin-6-yl)-2-fluorophenyl)-3-fluoropropane-1-sulfonamide]	100 to 1000	1 to 100	1 to 100	1 to 100	
COc1cc(-c2c(F)ccc(NS(=O)(=O)CCCF)c2F)cc2c(N3CCOCC3)nc(-c3cnc(N)nc3)nc12 [Example 82, N-(3-(2-(2-aminopyrimidin-5-yl)-8-methoxy-4-morpholinoquinazolin-6-yl)-2,4-difIuorophenyl)-3-fluoropropane-1-sulfonamide]		1 to 100	1 to 100	100 to 1000	1 to 100
COc1cc(-c2c(F)ccc(NS(=O)(=O)CCCF)c2F)cc2c(N3CCOCC3)nc(-c3cnc(N)cc3C(F)(F)F)nc12 [Example 84, N-(3-(2-(6-amino-4-(trifluoromethyl)pyridin~3-yl)-8-methoxy-4-morpholinoquinazolin-6-yl)-2,4-difluorophenyl)-3-fluoropropane-1-sulfonamide]	100 to 1000		1 to 100		
O=S(=O)(CCCF)Nc1cccc(-c2ccc3nc(-c4cccc5[nH]ncc45)nc(N4CCOCC4)c3n2)c1F [Example 89, N-(3-(2-(1H-indazol-4-yl)-4-morpholinopyrido[3,2-d]pyrimidin-6-yl)-2-fluorophenyl)-3-fluoropropane-1-sulfonamide]	100 to 1000		1 to 100	100 to 1000	
O=S(=O)(CCCF)Nc1cccc(-c2ccc3nc(-c4cnc5[nH]ccc5c4)nc(N4CCOCC4)c3n2)c1F [Example 91, 3-fluoro-N-(2-fluoro-3-(4-morpholtno-2-(1H-pyrrolo[2,3-b]pyrldin-5-yl)pyrido[3,2-d]pyrimidin-6-yl)phenyl)propane-1-sulfonamide]	1 to 100		1 to 100	1 to 100	
Nc1ncc(-c2nc(N3CCOCC3)c3nc(-c4cccc(NS(=O)(=O)c5c(F)cccc5F)c4F)ccc3n2)cn1 [Example 98, N-(3-(2-(2-aminopyrimidin-5-yl)-4-morpholinopyrido[3,2-d]pyrimidin-6-yl)-2-fluorophenyl)-2,6-difluorobenzenesulfonamide]	1 to 100		1 to 100	100 to 1000	
C[C@@H]1COCCN1c1nc(-c2cnc(N)cc2C(F)(F)F)nc2ccc(-c3cccc(NS(=O)(=O)CCCF)c3F)nc12 [Example 107, (R)-N-(3-(2-(6-amlno-4-(trifluoromethyl)pyridin-3-yl)-4-(3-methylmorpholino)pyrido[3,2-d]pyrimidin-6-yl)-2-fluorophenyl)-3-fluoropropane-1-sulfonamide]	100 to 1000		1 to 100		
CCCNc1ncc(-c2nc(N3CCOCC3)c3nc(-c4cccc(NS(=O)(=O)CCCF)c4F)ccc3n2)cn1 [Example 112, 3-fluoro-N-(2-fluoro-3-(4-morpholino-2-(2-(propylamino)pyrimidin-5-yl)pyrido[3,2-d]pyrimidin-6-yl)phenyl)propane-1-sulfonamide]	100 to 1000		1 to 100		
CCCNc1ccc(-c2nc(N3CCOCC3)c3nc(-c4cccc(NS(=O)(=O)CCCF)c4F)ccc3n2)cn1 [Example 115, 3-fluoro-N-(2-fluoro-3-(4-morpholino-2-(6-(propylamino)pyridin-3-yl)pyrido[3,2-d]pyrimidin-6-yl)phenyl)propane-1-sulfonamide]	100 to 1000		1 to 100	100 to 1000	
CNc1ncc(-c2nc(N3CCOCC3)c3nc(-c4cccc(NS(=O)(=O)CCCF)c4F)ccc3n2)cn1 [Example 121, 3-fluoro-N-(2-fluoro-3-(2-(2-(methylamino)pyrimidin-5-yl)-4-morpholinopyrido[3,2-d]pyrimidin-6-yl)phenyl)propane-1-sulfonamide]	1 to 100	100 to 1000	1 to 100	100 to 1000	
CCNc1ncc(-c2nc(N3CCOCC3)c3nc(-c4cccc(NS(=O)(=O)CCCF)c4F)ccc3n2)cn1 [Example 122, N-(3-(2-(2-(ethylamino)pyrimidin-5-yl)-4-morpholinopyrido[3,2-d]pyrimidin-6-yl)-2-fluorophenyl)-3-fluoropropane-1-sulfonamide]	100 to 1000		1 to 100		
C[C@H]1COCCN1c1nc(-c2ccc(N)nc2)nc2ccc(-c3cccc(NS(=O)(=O)CCCF)c3F)nc12 [Example 127, (S)-N-(3-(2-(6-aminopyridin-3-yl)-4-(3-methylmorpholino)pyrido[3,2-d]pyrimidin-6-yl)-2-fluorophenyl)-3-fluoropropane-1-sulfonamide]	1 to 100	100 to 1000	100 to 1000	1 to 100	
C[C@H]1COCCN1c1nc(-c2cnc(N)nc2)nc2ccc(-c3cccc(NS(=O)(=O)CCCF)c3F)nc12 [Example 128, (S)-N-(3-(2-(2-aminopyrimidin-5-yl)-4-(3-methylrnorpholino)pyrido[3,2-d]pyrimidin-6-yl)-2-fluorophenyl)-3-fluoropropane-1-sulfonamide]	1 to 100	100 to 1000	1 to 100	100 to 1000	
Cc1cc(N)ncc1-c1nc(N2CCOC[C@@H]2C)c2nc(-c3cccc(NS(=O)(=O)CCCF)c3F)ccc2n1 [Example 130, (S)-N-(3-(2-(6-amino-4-methylpyridin-3-yl)-4-(3-methylmorpholino)pyrido[3,2-d]pyrimidin-6-yl)-2-fluorophenyl)-3-fluoropropane-1-sulfonamide]	1 to 100	100 to 1000	100 to 1000	100 to 1000	
Cc1nc(N)ncc1-c1nc(N2CCOC[C@@H]2C)c2nc(-c3cccc(NS(=O)(=O)CCCF)c3F)ccc2n1 [Example 131, (S)-N-(3-(2-(2-amino-4-methylpyrimidin-5-yl)-4-(3-methylmorpholino)pyrido[3,2-d]pyrimidin-6-yl)-2-fluorophenyl)-3-fluoropropane-1-sulfonamide]	1 to 100	100 to 1000	100 to 1000	100 to 1000	
Cc1nc(N)ncc1-c1nc(N2CCOC[C@@H]2C)c2nc(-c3cccc(NS(=O)(=O)c4cc(F)ccc4F)c3F)ccc2n1 [Example 132, (S)-N-(3-(2-(2-amino-4-methylpyrimidin-5-yl)-4-(3-methylmorpholino)pyrido[3,2-d]pyrimidin-6-yl)-2-fluorophenyl)-2,5-difluorobenzenesulfonamide]	1 to 100	100 to 1000	1 to 100	100 to 1000	
